{"source": "ChEMBL document CHEMBL5331135", "about": "“Design, Synthesis, and Evaluation of Glucose Transporter Inhibitor-SN38 Conjugates for Targeting Colorectal Cancer” (J Med Chem, 2023)", "key": {"[1]": {"assay": "Prodrug conversion in buffer assessed as SN38 release at 1 uM measured for 2 hrs by UHPLC-MS/MS analysis", "assay_type": "ADME"}, "[2]": {"assay": "Stability in human plasma assessed as formation of carboxylate product measured for 72 hrs by RP-HPLC analysis", "assay_type": "ADME, cell-free"}, "[3]": {"assay": "Toxicity in AOM/DSS-induced orthotopic CRC BALB/c mouse model assessed as body weight loss at 40 mg/kg, iv administered once every 2 days for 2 weeks", "assay_type": "organism-based", "details": "in vivo, 336 h; call rule not given here"}, "[4]": {"assay": "Antitumor activity against AOM/DSS-induced orthotopic CRC BALB/c mouse model assessed as reduction in tumor area at 40 mg/kg, iv administered once every 2 days for 2 weeks by dissecting microscopic analysis relative to control", "assay_type": "functional, Colorectal cancer cell", "set-up": "scale not given: the % may be the effect or the level left"}, "[5]": {"assay": "Prodrug conversion in lung of BALB/c mouse assessed as SN38 release at 40 mg/kg, iv measured after 4 hrs by UHPLC-MS/MS analysis", "assay_type": "ADME, organism-based", "details": "in vivo"}, "HT-29 [6]": {"tested_on": "HT-29", "assay": "Cytotoxicity against human HT-29 cells incubated for 48 hrs by SRB assay", "assay_type": "functional, cell-based", "details": "HT-29, 48 h"}, "[7]": {"assay": "Toxicity in AOM/DSS-induced orthotopic CRC BALB/c mouse model assessed as lesions in stomach at 20 to 40 mg/kg, iv administered once every 2 days for 2 weeks by H&E staining based analysis", "assay_type": "organism-based", "details": "in vivo, 336 h, dose 20-40 mg/kg"}, "[8]": {"assay": "Toxicity in AOM/DSS-induced orthotopic CRC BALB/c mouse model assessed as lesions in heart at 20 to 40 mg/kg, iv administered once every 2 days for 2 weeks by H&E staining based analysis", "assay_type": "organism-based", "details": "in vivo, 336 h, dose 20-40 mg/kg"}, "COLO 205 [9]": {"tested_on": "COLO 205", "assay": "Cytotoxicity against human COLO 205 cells incubated for 48 hrs by SRB assay", "assay_type": "functional, cell-based", "details": "COLO 205, 48 h"}, "HCT-116 [10]": {"tested_on": "HCT-116", "assay": "Cytotoxicity against human HCT-116 cells incubated for 48 hrs by SRB assay", "assay_type": "functional, cell-based", "details": "HCT-116, 48 h"}, "[11]": {"assay": "Toxicity in AOM/DSS-induced orthotopic CRC BALB/c mouse model assessed as lesions in liver at 20 to 40 mg/kg, iv administered once every 2 days for 2 weeks by H&E staining based analysis", "assay_type": "organism-based", "details": "in vivo, 336 h, dose 20-40 mg/kg"}, "[12]": {"assay": "Stability in human plasma assessed as half life by RP-HPLC analysis", "assay_type": "ADME, cell-free"}, "[13]": {"assay": "Drug uptake in human COLO 205 cells assessed as drug internalization in presence of 4.5 g/L glucose by fluorescence based assay", "assay_type": "ADME, cell-based"}, "[14]": {"assay": "Toxicity in AOM/DSS-induced orthotopic CRC BALB/c mouse model assessed as lesions in lung at 20 to 40 mg/kg, iv administered once every 2 days for 2 weeks by H&E staining based analysis", "assay_type": "organism-based", "details": "in vivo, 336 h, dose 20-40 mg/kg"}, "[15]": {"assay": "Toxicity in AOM/DSS-induced orthotopic CRC BALB/c mouse model assessed as lesions in spleen at 20 to 40 mg/kg, iv administered once every 2 days for 2 weeks by H&E staining based analysis", "assay_type": "organism-based", "details": "in vivo, 336 h, dose 20-40 mg/kg"}, "Colorectal cancer cell": {"tested_on": "Colorectal cancer cell", "assay": "Antitumor activity against AOM/DSS-induced orthotopic CRC BALB/c mouse model assessed as reduction in tumor area administered intravenously once every 2 days for 2 weeks by dissecting microscopic analysis", "assay_type": "functional", "details": "dose 20-40 mg/kg, route iv"}, "[16]": {"assay": "Toxicity in AOM/DSS-induced orthotopic CRC BALB/c mouse model assessed as lesions in kidney at 20 to 40 mg/kg, iv administered once every 2 days for 2 weeks by H&E staining based analysis", "assay_type": "organism-based", "details": "in vivo, 336 h, dose 20-40 mg/kg"}, "[17]": {"assay": "Toxicity in AOM/DSS-induced orthotopic CRC BALB/c mouse model assessed as lesions in lung at 15 mg/kg, iv administered once every 2 days for 2 weeks by H&E staining based analysis", "assay_type": "organism-based", "details": "in vivo, 336 h"}, "[18]": {"assay": "Toxicity in AOM/DSS-induced orthotopic CRC BALB/c mouse model assessed as lesions in heart at 15 mg/kg, iv administered once every 2 days for 2 weeks by H&E staining based analysis", "assay_type": "organism-based", "details": "in vivo, 336 h"}, "HCT-116 [19]": {"tested_on": "HCT-116", "assay": "Cytotoxicity against human HCT-116 cells incubated for 48 hrs in presence of SN38 by SRB assay", "assay_type": "functional, cell-based", "details": "HCT-116, 48 h"}, "HT-29 [20]": {"tested_on": "HT-29", "assay": "Cytotoxicity against human HT-29 cells incubated for 48 hrs in presence of SN38 by SRB assay", "assay_type": "functional, cell-based", "details": "HT-29, 48 h"}, "[21]": {"assay": "Toxicity in AOM/DSS-induced orthotopic CRC BALB/c mouse model assessed as lesions in spleen at 15 mg/kg, iv administered once every 2 days for 2 weeks by H&E staining based analysis", "assay_type": "organism-based", "details": "in vivo, 336 h"}, "COLO 205 [22]": {"tested_on": "COLO 205", "assay": "Cytotoxicity against human COLO 205 cells incubated for 48 hrs in presence of SN38 by SRB assay", "assay_type": "functional, cell-based", "details": "COLO 205, 48 h"}, "[23]": {"assay": "Toxicity in AOM/DSS-induced orthotopic CRC BALB/c mouse model assessed as lesions in stomach at 15 mg/kg, iv administered once every 2 days for 2 weeks by H&E staining based analysis", "assay_type": "organism-based", "details": "in vivo, 336 h"}, "[24]": {"assay": "Toxicity in AOM/DSS-induced orthotopic CRC BALB/c mouse model assessed as lesions in liver at 15 mg/kg, iv administered once every 2 days for 2 weeks by H&E staining based analysis", "assay_type": "organism-based", "details": "in vivo, 336 h"}, "[25]": {"assay": "Toxicity in AOM/DSS-induced orthotopic CRC BALB/c mouse model assessed as lesions in kidney at 15 mg/kg, iv administered once every 2 days for 2 weeks by H&E staining based analysis", "assay_type": "organism-based", "details": "in vivo, 336 h"}, "[26]": {"assay": "Toxicity in AOM/DSS-induced orthotopic CRC BALB/c mouse model assessed as body weight loss at 15 mg/kg, iv administered once every 2 days for 2 weeks", "assay_type": "organism-based", "details": "in vivo, 336 h"}}}
{"compound": "CCc1c2c(nc3ccc(OCc4ccc(NC(=O)[C@H](CCCNC(N)=O)NC(=O)[C@@H](NC(=O)CCCCN5C(=O)CC(SCCOCCOCCOc6cc(O)c(C(=O)CCc7ccc(O)cc7)c(O)c6)C5=O)C(C)C)cc4)cc13)-c1cc3c(c(=O)n1C2)COC(=O)[C@]3(O)CC", "note": "(stereo partly specified)", "values": [{"measurement": "Drug metabolism", "setting": "[1]", "value": "Not Active"}, {"measurement": "Stability", "setting": "[2]", "value": "Stable"}, {"measurement": "Activity", "setting": "[3]", "value": "Non-Toxic"}, {"measurement": "Activity", "setting": "[4]", "value": 75, "unit": "%"}, {"measurement": "Drug metabolism", "setting": "[5]", "value": "Metabolite_Notdetected"}, {"measurement": "IC50", "setting": "HT-29 [6]", "value": "> 100000", "unit": "nM"}, {"measurement": "Activity", "setting": "[7]", "value": "Non-Toxic"}, {"measurement": "Activity", "setting": "[8]", "value": "Non-Toxic"}, {"measurement": "IC50", "setting": "COLO 205 [9]", "value": 4590, "unit": "nM"}, {"measurement": "IC50", "setting": "HCT-116 [10]", "value": 7430, "unit": "nM"}, {"measurement": "Activity", "setting": "[11]", "value": "Non-Toxic"}, {"measurement": "half-life", "setting": "[12]", "value": 36, "unit": "h"}, {"measurement": "Drug uptake", "setting": "[13]", "value": "Active"}, {"measurement": "Activity", "setting": "[14]", "value": "Non-Toxic"}, {"measurement": "Activity", "setting": "[15]", "value": "Non-Toxic"}, {"measurement": "Activity", "setting": "Colorectal cancer cell", "value": "Dose-Dependent Effect"}, {"measurement": "Activity", "setting": "[16]", "value": "Non-Toxic"}]}
{"compound": "CCc1c2c(nc3ccc(O)cc13)-c1cc3c(c(=O)n1C2)COC(=O)[C@]3(O)CC", "note": "[7-ETHYL-10-HYDROXYCAMPTOTHECIN]", "values": [{"measurement": "IC50", "setting": "HT-29 [6]", "value": 430, "unit": "nM"}, {"measurement": "IC50", "setting": "COLO 205 [9]", "value": 0.75, "unit": "nM"}, {"measurement": "IC50", "setting": "HCT-116 [10]", "value": 54.9, "unit": "nM"}]}
{"compound": "O=C(CCc1ccc(O)cc1)c1c(O)cc(O)cc1O[C@@H]1O[C@H](CO)[C@@H](O)[C@H](O)[C@H]1O", "note": "[PHLORIZIN]", "values": [{"measurement": "IC50", "setting": "HT-29 [6]", "value": "> 100000", "unit": "nM"}, {"measurement": "IC50", "setting": "COLO 205 [9]", "value": "> 100000", "unit": "nM"}, {"measurement": "IC50", "setting": "HCT-116 [10]", "value": "> 100000", "unit": "nM"}]}
{"compound": "O=C(CCc1ccc(O)cc1)c1c(O)cc(OCCOCCOCCS)cc1O[C@@H]1O[C@H](CO)[C@@H](O)[C@H](O)[C@H]1O", "values": [{"measurement": "Activity", "setting": "[17]", "value": "Non-Toxic"}, {"measurement": "Activity", "setting": "[18]", "value": "Non-Toxic"}, {"measurement": "IC50", "setting": "HCT-116 [19]", "value": 45.4, "unit": "nM"}, {"measurement": "IC50", "setting": "HT-29 [20]", "value": 330, "unit": "nM"}, {"measurement": "IC50", "setting": "HT-29 [6]", "value": "> 100000", "unit": "nM"}, {"measurement": "Activity", "setting": "[21]", "value": "Non-Toxic"}, {"measurement": "IC50", "setting": "COLO 205 [22]", "value": 140, "unit": "nM"}, {"measurement": "IC50", "setting": "COLO 205 [9]", "value": "> 100000", "unit": "nM"}, {"measurement": "IC50", "setting": "HCT-116 [10]", "value": "> 100000", "unit": "nM"}, {"measurement": "Activity", "setting": "[23]", "value": "Non-Toxic"}, {"measurement": "Activity", "setting": "[24]", "value": "Non-Toxic"}, {"measurement": "Activity", "setting": "[25]", "value": "Non-Toxic"}, {"measurement": "Activity", "setting": "[26]", "value": "Non-Toxic"}]}
